The values below come from paper PMC3666932 (Archives of pharmacal research, 2012).

Data set [1] relates to T. cruzi epimastigotes (Tulahuen CL98 strain). The experiment in a line: Antitrypanosomal activity assay. Format: cell-based, Trypanosoma cruzi. Conditions: for Selectivity index (Cytotoxicity/ Activity): ratio of IC50 for fibroblast cells/ IC50 for parasites; for IC50: Trypanosoma cruzi, TULAHUEN, 48 h, read-out: Antitrypanocidal activity IC50.
The nature of another data set: Cytotoxicity assay. In kind it is cell-based. As to conditions: mouse, Balb/C 3T3 mouse fibroblasts (clone A31).
The nature of data set [2]: Antitrypanosomal activity assay. Format: cell-based, Trypanosoma cruzi. As to conditions: mouse (fibroblasts) / Trypanosoma cruzi (parasites).
The next data set deals with T. cruzi epimastigotes. Conditions: ref Ramos et al., 2009; cited from earlier work.

Each structure is given as a SMILES string.

Consider `O=C1C(Cl)=C(N(C(=O)CCl)C(=O)CCl)C(=O)c2ccccc21` [IMDNQ11], for which the “Selectivity index (Cytotoxicity/ Activity)” value (“Selectivity index” below) in data set [1] was 3.20 ± 0.44.
For `O=C1C(Cl)=C(N2C(=O)CCC2=O)C(=O)c2ccccc21` [IMDNQ1], the “Selectivity index” value in data set [1] came out at 60.25 ± 2.79.
In general, IC50 refers to the concentration at which inhibition is half-maximal. With `O=C1C(Cl)=C(N(C(=O)c2ccccc2Cl)C(=O)c2ccccc2Cl)C(=O)c2ccccc21` [IMDNQ8, 2-Chloro-N-(2-chlorobenzoyl)-N-(3-chloro-1,4-dioxo-1,4-dihydronaphthalen-2-yl)-benzamide], it took 26.5 ± 1.61 µM to reach half-maximal inhibition in the data set “Cytotoxicity assay” (IC50 at 48 h). In data set [1], the IC50 turned out to be 2.67 ± 0.33 µM.
For the molecule `O=C1C(Br)=C(N(C(=O)c2ccc(F)cc2)C(=O)c2ccc(F)cc2)C(=O)c2ccccc21` [IMDNQ5, N-(3-Bromo-1,4-dioxo-1,4-dihydronaphthalen-2-yl)-4-fluoro-N-(4-fluorobenzoyl)-benzamide], the IC50 at 48 h in “Cytotoxicity assay” turned out to be 12.8 ± 0.73 µM. Further, the IC50 in data set [1] amounted to 2.27 ± 0.15 µM.
`O=C1C(Br)=C(N(C(=O)c2ccccc2Cl)C(=O)c2ccccc2Cl)C(=O)c2ccccc21` [IMDNQ6, N-(3-Bromo-1,4-dioxo-1,4-dihydronaphthalen-2-yl)-2-chloro-N-(2-chlorobenzoyl)-benzamide]: the half-maximal inhibitory concentration (IC50) at 48 h in “Cytotoxicity assay” was 14.2 ± 1.42 µM.
As for `CCCC(=O)N(C(=O)CCC)C1=C(Cl)C(=O)c2ccccc2C1=O` [IMDNQ3], the “Selectivity index” value in data set [1] stood at 31.83 ± 3.17.
Same read-out and setting: the result for `O=C1C(Cl)=C(N2C(=O)COCC2=O)C(=O)c2ccccc21` [IMDNQ4] reads 7.43 ± 0.97.
Turning to `O=C1C(Cl)=C(N(C(=O)c2cccc(Cl)c2)C(=O)c2cccc(Cl)c2)C(=O)c2ccccc21` [IMDNQ10, 3-Chloro-N-(3-chlorobenzoyl)-N-(3-chloro-1,4-dioxo-1,4-dihydronaphthalen-2-yl)-benzamide], the IC50 in data set [1] came out at 2.23 ± 0.15 µM. Also, in data set [2], the selectivity ratio at 48 h worked out at 275 ± 13.7.
Consider `CC1CS(=O)(=O)CCN1/N=C/c1ccc([N+](=O)[O-])o1` (stereo not shown) [Nifurtimox, reference compound], for which the half-inhibitory concentration (IC50) in data set [1] came out at 10.7 ± 1.01 µM.
As for `O=C1C(c2ccccc2)=C(c2ccccc2)C(=O)c2ccccc21` [DPNQ, 2,3-diphenyl-1,4-naphthoquin-one], the LD50 with T. cruzi epimastigotes was 2.5 µM.
As to `O=C1C(Cl)=C(N2C(=O)c3ccccc3C2=O)C(=O)c2ccccc21` [IMDNQ2], the “Selectivity index” value in data set [1] amounted to 53.97 ± 5.95.
On to `O=C1C(Cl)=C(N(C(=O)c2ccc(F)cc2)C(=O)c2ccc(F)cc2)C(=O)c2ccccc21` [IMDNQ9, N-(3-Chloro-1,4-dioxo-1,4-dihydronaphthalen-2-yl)-4-fluoro-N-(4-fluorobenzoyl)-benzamide], for which, in “Cytotoxicity assay”, the 50% inhibitory concentration (IC50) at 48 h came out at 21.8 ± 1.88 µM. In data set [1], the IC50 stood at 4.07 ± 0.23 µM.
